Assay results published in patent publication US20070087376A1, “Splice variants of pre-mRNA transcripts as biomarkers in idiopathic neurodegenerative diseases” (priority 2004, published 2007).

How the values were obtained:
[1] = test system: Ania6 splice variants (Ania6 and Ania6a mRNA); assay: Ania6 splice variant mRNA levels in blood of MPTP-treated mice, RT-PCR; type: in vivo, mouse; conditions: chronic MPTP treatment
Excerpt: (§1) Mice were then euthanized either at 3 days or 3 weeks after treatment. Two time periods were selected in order to characterizing splicing events in the blood over time. Controls for the acute group include mice treated with saline and, for the chronic experiments, mice treated with probenecid or saline.
(§2) Blood specimens for assaying RNA from the mice described in Example 1 above were obtained as follows. Mice were sacrificed by cervical dislocation and the heart lacerated to release the blood. Approximately 50 μl of 0.05 M EDTA, pH 8.0 was added to the chest cavity to prevent the blood from coagulating. Blood was collected in a sterile 1 ml syringe that was initially rinsed in 0.50 M EDTA pH 8.0.
(§3) RNA from blood samples obtained as described in Example 2 was separated on a 1.8% agarose gel and stained with 5 μl of ethidium bromide (10 mg/ml stock) diluted into 10 ml of a TAE buffer (pH 8.5 40 mM Tris.acetate, 2 mM Na2EDTA.2H2O. After staining, the RNA was visualized on a UV light box and the 18S RNA band was quantified. The image was captured using a Kodak EDAS290 system (Kodak, Rochester, N.Y.) and the Kodak 1D Image Analysis software (Kodak, Rochester, N.Y.) was used to quantify. Other similar cameras and analysis softwares will also work. […]

[2] = test system: NDUFS4 splice variants (NDUFS4 and NDUFS4-SV3 mRNA); assay: NDUFS4 splice variant mRNA levels in MPTP-treated mice, RT-PCR; type: in vivo, mouse; conditions: chronic MPTP treatment
Excerpt: as §1, §2
(§4) RNA from blood samples obtained as described in Example 2 was separated on a 1.8% agarose gel and stained with 5 μl of ethidium bromide (10 mg/ml stock) diluted into 10 ml of a TAE buffer (pH 8.5 40 mM Tris.acetate, 2 mM Na2EDTA.2H2O. After staining, the RNA was visualized on a UV light box and the 18S RNA band was quantified. The image was captured using a Kodak EDAS290 system (Kodak, Rochester, N.Y.) and the Kodak 1D Image Analysis software (Kodak, Rochester, N.Y.) was used to quantify. Other similar cameras and analysis softwares will also work.
(§5) Splice variant mRNA was assayed using reverse transcriptase polymerase chain reactions (RT-PCR) as described in U.S. patent application Ser. No.: 11/215,842. PCR conditions for amplification of FosB, RGS9, AchE, Ania6 and NDUFS4 are the same as disclosed in U.S. patent application Ser. No.: 11/215,842 except different kits were used for FosB and RGS9 compared to the other 3 transcripts.
• 1. 95° C. 8 minutes • 2. 95° C. 30 seconds • 3. 57° C. 30 seconds • 4. 72° C. 30 seconds • 5. Repeat from step 2 35 times • 6. 72° C. 10 minutes RGS9 (SYBR green, Applied Biosystems, Foster City, Calif.) • 1. 95° C. 8 minutes • 2. 95° C. 30 seconds • 3. 54° C. 30 seconds • 4. 72° C. 30 seconds • 5. Repeat from step 2 35 times • 6. 72° C. 10 minutes AChE (go Taq Green, Promega, Madison, Wis.) • 1. 95° C. 5 minutes • 2. 95° C. 30 seconds • 3. 61° C. 30 seconds • 4. 72° C. […]

[3] = test system: RGS9 splice variants (RGS9-1 and RGS9-2 mRNA); assay: RGS9 splice variant mRNA levels in blood of MPTP-treated mice, RT-PCR; type: in vivo, mouse
Excerpt: as §1, §2, §3

[4] = test system: AChE splice variants (AChE-R and AChE-S mRNA); assay: AChE splice variant mRNA levels in blood of MPTP-treated mice, RT-PCR; type: in vivo, mouse
Excerpt: as §1, §2, §4, §5
• 1. 95° C. 8 minutes • 2. 95° C. 30 seconds • 3. 57° C. 30 seconds • 4. 72° C. 30 seconds • 5. Repeat from step 2 35 times • 6. 72° C. 10 minutes RGS9 (SYBR green, Applied Biosystems, Foster City, Calif.) • 1. 95° C. 8 minutes • 2. 95° C. 30 seconds • 3. 54° C. 30 seconds • 4. 72° C. 30 seconds • 5. Repeat from step 2 35 times • 6. 72° C. 10 minutes AChE (go Taq Green, Promega, Madison, Wis.) • 1. 95° C. 5 minutes • 2. 95° C. 30 seconds • 3. 61° C. 30 seconds • 4. 72° C. 30 seconds • 5. Repeat from step 2 30 times • 6. 72° C. 5 minutes NDUFS4 (go Taq Green, Promega, Madison, Wis.) • 1. 95° C. 5 minutes • 2. 95° C. 30 seconds • 3. 64° C. 30 seconds • 4. 72° C. 30 seconds • 5. Repeat from step 2 30 times • 6. 72° C. 5 minutes Ania (go Taq Green, Promega, Madison, Wis. • 1. 95° C. 5 minutes • 2. 95° C. 30 seconds • 3. 57° C. 30 seconds • 4. 72° C. 30 seconds • 5. Repeat from step 2 35 times • 6. 72° C. 5 minutes Primers used in the PCR Assays: […]
We investigated whether the amount of the splice variants of acetylcholinesterase (AChE) changed after MPTP toxin treatment. AChE hydrolyzes acetylcholine (ACh) and thereby functions to terminate Ach-mediated neurotransmission. In many neuropathologies, the characteristics of AChE are modified in the central nervous system. We looked at the AChE-S and ACHE-R splice variants. The AChE-S mRNA produces the canonical synaptic tetrameric form of the enzyme. AChE-S is formed by skipping exon 5 such that the final mRNA is composed of exons 1-4 and exon 6 (FIG. 5). The protein produced from this transcript has a cysteine-containing carboxyl-terminus that allows for the formation of the tetramer. AChE-R, produces a read-through transcript in which a downstream splice donor is spliced to the intron 4 3′ splice site such that exon 5 is included in the mRNA (FIG. 6). This produces a protein with a different carboxyl-terminus than the synaptic form. […]

[5] = test system: FosB splice variants (FosB and ΔFosB mRNA); assay: FosB splice variant mRNA levels in blood of MPTP-treated (Parkinsonian) mice, RT-PCR; type: in vivo, mouse; conditions: vs vehicle
Excerpt: as §1, §2, §3

[6] = test system: transcripts that have splice variants; conditions: mptp study, cited from earlier work
[7] = chronic MPTP treatment, 3 days and 3 weeks after

SMILES: CN1CC=C(c2ccccc2)CC1 [MPTP, 1-methyl-4-phenyl-1,2,3,6-tetrahydropyridine]
- Ania6a mRNA/18S RNA [1]: increases
- Ania6 mRNA/18S RNA ([1]; 3 days and 3 weeks after): decreases after chronic MPTP treatment and remains lower for 3 weeks
- NDUFS4 mRNA/18S RNA [2]: decreases
- NDUFS4-SV3 mRNA/18S RNA ([2]; 3 days and 3 weeks after): decreases after chronic MPTP treatment and remains lower for 3 weeks
- NDUFS4-SV3 mRNA/NDUFS4 mRNA ([2]; 3 days and 3 weeks after): decreases after chronic MPTP treatment and remains lower for 3 weeks
- RGS9-2 mRNA/18S RNA ([3]; acute MPTP treatment): decreases
- RGS9-2 mRNA/RGS9-1 [3, 7]: decreases after chronic MPTP treatment and remains lower for 3 weeks
- AChE-R mRNA/18S RNA ([4]; acute MPTP treatment): increases
- AChE-R mRNA/AChE-S mRNA ([4]; acute MPTP treatment): increases
- AChE-R mRNA/AChE-S mRNA ([4]; chronic MPTP treatment): decreases
- AChE-S mRNA/18S RNA ([4]; chronic MPTP treatment): increases
- AChE-R mRNA/18S RNA [4, 7]: decreases and remains lower for 3 weeks
- FosB mRNA/18S RNA ([5]; acute MPTP treatment (20 mg/kg, 4 times, every 2 hours), euthanized 3 days later): decreases
- ΔFosB mRNA/18S RNA ([5]; chronic MPTP (25 mg/kg s.c.) and probenecid, twice each week for 5 weeks): decreases
- Change of BAX M, isoform-a transcript ([6]; function Apoptosis): Up
- Change of Cyclin B2 transcript ([6]; function Cell cycle): Down
- Change of Alpha-synuclein transcript ([6]; function PD-associated): Up
- Change of Ach N receptor transcript ([6]; function Receptors): Up
- Change of IL-1 recept II transcript ([6]; function Receptors): Up
- Change of IL-2 rp-G transcript ([6]; function Receptors): Up
- Change of IL-10 transcript ([6]; function Receptors): Up
- Change of Gtase transcript ([6]; function Stress): Down
